The source made the active and inactive calls. No cut-off for these calls is given here.

For assay [1], the system named is MCF7. The assay is described as follows: Cytotoxicity against human MCF7 cells assessed as cell growth inhibition at 300 uM after 48 hrs by WST-1 assay. The assay is classed as functional, cell-based.
Assay [2] relates to MDA-MB-468. The assay is described as follows: Cytotoxicity against human MDA-MB-468 cells assessed as cell growth inhibition at 300 uM after 48 hrs by WST-1 assay. The assay is classed as functional, cell-based. In general terms: Tetrazolium assays rely on reduction of a dye to a coloured formazan, in cell work by metabolically active cells.
The subject of assay [3] is MDA-MB-231. Nature of the assay: Cytotoxicity against human MDA-MB-231 cells assessed as cell growth inhibition at 300 uM after 48 hrs by WST-1 assay. The assay is classed as functional, cell-based.
The nature of assay [4]: Cytotoxicity against human SKBR3 cells overexpressing HER2 assessed as cell growth inhibition after 48 hrs by WST-1 assay. Type of assay: functional, cell-based. To be noted: SK-BR-3, 48 h.
The test system of assay [5] is MDA-MB-468. Nature of the assay: Cytotoxicity against human MDA-MB-468 cells assessed as cell growth inhibition after 48 hrs by WST-1 assay. The assay is classed as functional, cell-based. To be noted: MDA-MB-468, 48 h.
Assay [6] deals with MCF7. The assay is described as follows: Cytotoxicity against human MCF7 cells assessed as cell growth inhibition after 48 hrs by WST-1 assay. To be noted: MCF7, 48 h. Type of assay: functional, cell-based.
Assay [7] is described as follows: Decrease in HER2 expression in human SKBR3 cells overexpressing HER2 by immunohistochemistry staining. Type of assay: functional, cell-based. To be noted: SK-BR-3.
Assay [8] deals with SK-BR-3. The assay is described as follows: Decrease in ALDH activity in human SKBR3 cells overexpressing HER2 assessed as reduction in ALDH-positive population at 30 uM after 72 hrs by Aldefluor assay. Type of assay: functional.
The test system of assay [9] is MDA-MB-231. Nature of the assay: Cytotoxicity against human MDA-MB-231 cells assessed as cell growth inhibition after 48 hrs by WST-1 assay. The assay is classed as functional, cell-based. To be noted: MDA-MB-231, 48 h.
For assay [10], the system named is SK-BR-3. The assay is described as follows: Decrease in ALDH activity in human SKBR3 cells overexpressing HER2 assessed as ALDH-positive population by flow cytometry in absence of ALDH inhibitor DEAB (reference value: 20%). The assay is classed as functional. Also noted: scale not given: the % may be the effect or the level left.
Assay [11] has as its system SK-BR-3. The assay is described as follows: Decrease in ALDH activity in human SKBR3 cells overexpressing HER2 assessed as ALDH-positive population by flow cytometry in presence of ALDH inhibitor DEAB (reference value: 0.7%). The assay is classed as functional. Also noted: scale not given: the % may be the effect or the level left.
The test system of assay [12] is SK-BR-3. Nature of the assay: Inhibition of cell adhesion in human SKBR3 cells overexpressing HER2 at 25 uM after 30 to 90 mins by microtiter plate reader analysis. Type of assay: functional.
Assay [13] relates to MCF7. The assay is described as follows: Inhibition of cell migration in human MCF7 cells at 25 uM after 8 hrs by microtiter plate reader analysis. Type of assay: functional. To be noted: MCF7, 8 h.
Assay [14] relates to SK-BR-3. Nature of the assay: Inhibition of cell migration in human SKBR3 cells overexpressing HER2 at 25 uM after 8 hrs by microtiter plate reader analysis. To be noted: SK-BR-3, 8 h. Type of assay: functional.
Assay [15] concerns MDA-MB-231. The assay is described as follows: Inhibition of cell migration in human MDA-MB-231 cells at 25 uM after 8 hrs by microtiter plate reader analysis. Type of assay: functional. To be noted: MDA-MB-231, 8 h.
The test system of assay [16] is MCF7. The assay is described as follows: Inhibition of cell adhesion in human MCF7 cells at 25 uM after 30 to 90 mins by microtiter plate reader analysis. The assay is classed as functional.
Assay [17] concerns MDA-MB-231. Nature of the assay: Inhibition of cell adhesion in human MDA-MB-231 cells at 25 uM after 30 to 90 mins by microtiter plate reader analysis. The assay is classed as functional.

In the case of `S=C(N/N=C\c1ccc2c(c1)OCO2)NC1CCCCC1`, the inhibition result in the assay on MCF7 [1], with MDA-MB-468 [2] and in the assay on MDA-MB-231 [3] was “inactive” each time. Besides, the IC50 (commonly the concentration that inhibits the measured activity by half) in assay [4] was 61.6 µM.
On to `Oc1ccc(/C=N\NC(=S)NC2CCCCC2)cc1`, for which the IC50 in the assay with MDA-MB-468 [5] turned out to be 242 µM; with MCF7 [6], 50.4 µM; in assay [4] it was 29.9 µM; in the assay on MDA-MB-231 [9], 115 µM. The inhibition entry (in assay [7]; in the assay on SK-BR-3 [8]) was “Active” throughout.
With `O=[N+]([O-])c1ccccc1/C=N\NC(=S)NC1CCCCC1`, the inhibition entry in the assay on MCF7 [1] and in the assay on MDA-MB-468 [2] was “inactive” throughout. Moreover, the IC50 in [4] came out at 46.5 µM; in the assay with MDA-MB-231 [9], 118 µM.
As for `S=C(N/N=C\c1ccc(Cl)cc1)NC1CCCCC1`, the half-inhibitory concentration (IC50) was 41.6 µM in the assay on MDA-MB-468 [5], 91.4 µM in the assay with MCF7 [6], 32.2 µM in assay [4] and 38.3 µM in the assay with MDA-MB-231 [9].
Turning to `S=C(N/N=C\c1ccco1)NC1CCCCC1`, the inhibition result in the assay on MCF7 [1] and with MDA-MB-468 [2] was “inactive” each time. For the same molecule, the IC50 in assay [4] worked out at 45.7 µM; in the assay with MDA-MB-231 [9] it was 141 µM.
With `O=c1[nH]cc(F)c(=O)[nH]1` [FLUOROURACIL], the figures for the IC50 (in the assay on MCF7 [6]; in assay [4]; with MDA-MB-231 [9]) were 34.5 µM, 38.9 µM and 77.3 µM, respectively.
Turning to `S=C(N/N=C\c1cccs1)NC1CCCCC1`, the IC50 was determined as 337 µM in the assay with MDA-MB-468 [5], 49.8 µM with MCF7 [6], 30.4 µM in assay [4] and 58.6 µM in the assay on MDA-MB-231 [9]. In addition, the inhibition entry (in assay [7]; in the assay on SK-BR-3 [8]) was “Active” each time.
Turning to `O=[N+]([O-])c1ccc(/C=N\NC(=S)NC2CCCCC2)cc1`, the inhibition entry in the assay on MCF7 [1], in the assay on MDA-MB-468 [2] and in the assay on MDA-MB-231 [3] was “inactive” in each case. For the same molecule, the IC50 in [4] turned out to be 41 µM.
For `CN(C)c1ccc(/C=N\NC(=S)NC2CCCCC2)cc1`, the IC50 was 280 µM in the assay with MDA-MB-468 [5], 51.1 µM with MCF7 [6], 31.2 µM in [4] and 125 µM in the assay with MDA-MB-231 [9].
Take `CCOc1ccc(/C=N\NC(=S)NC2CCCCC2)cc1`: the IC50 is 252 µM in the assay on MDA-MB-468 [5], 166 µM with MCF7 [6], 29.9 µM in assay [4] and 68.2 µM with MDA-MB-231 [9]. Further, the inhibition entry (in assay [7]; in the assay on SK-BR-3 [8]) was “Active” each time. Moreover, the Activity with SK-BR-3 [10] turned out to be 11.1%; in the assay with SK-BR-3 [11] it was 0.7%.
Consider `CC[C@@H](C(=O)[C@@H](C)[C@@H](O)[C@H](C)[C@@H]1O[C@@H]([C@@H](CC)C(=O)O)CC[C@@H]1C)[C@H]1O[C@]2(C=C[C@@H](O)[C@]3(CC[C@@](C)([C@H]4CC[C@](O)(CC)[C@H](C)O4)O3)O2)[C@H](C)C[C@@H]1C` [SALINOMYCIN], for which the Activity in the assay on SK-BR-3 [10] is recorded as 30%; in the assay with SK-BR-3 [11], 0.6%.
Regarding `Oc1cccc(/C=N\NC(=S)NC2CCCCC2)c1`, in the assay with MCF7 [1], the inhibition (usually the drop in the measured response relative to a control, in per cent) was “inactive”. The concentration for half-maximal inhibition (IC50) was 32.2 µM with MDA-MB-468 [5], 25.6 µM in assay [4] and 24.5 µM with MDA-MB-231 [9]. Besides, the inhibition result (in assay [7]; with SK-BR-3 [8]) was “Active” each time.
Take `O=[N+]([O-])c1cccc(/C=N\NC(=S)NC2CCCCC2)c1`: the inhibition result in the assay with MCF7 [1] and in the assay with MDA-MB-468 [2] was “inactive” in each case. Further, the IC50 worked out at 34.6 µM in [4] and 84.8 µM in the assay with MDA-MB-231 [9].
Turning to `COc1ccc(/C=N\NC(=S)NC2CCCCC2)cc1OC`, the inhibition result in the assay on MDA-MB-468 [2] and in the assay on MDA-MB-231 [3] was “inactive” each time. Besides, the figures for the IC50 (in the assay on MCF7 [6]; in [4]) were 99.2 µM and 47.9 µM, respectively.
Regarding `Oc1ccc(/C=N\NC(=S)NC2CCCCC2)c(O)c1`, the IC50 in the assay with MDA-MB-468 [5] is 44.6 µM; in the assay on MCF7 [6], 105 µM; in assay [4], 27.7 µM; with MDA-MB-231 [9], 56.6 µM.
For the molecule `COc1cccc(/C=N\NC(=S)NC2CCCCC2)c1`, the IC50 worked out at 46.7 µM in the assay on MDA-MB-468 [5], 49.9 µM in the assay on MCF7 [6], 30.9 µM in [4] and 88.9 µM in the assay on MDA-MB-231 [9]. The inhibition at 25 µM with SK-BR-3 [12] is 45.6%; in the assay on MCF7 [13] it was 32.4%; in the assay with SK-BR-3 [14], 46.7%; with MDA-MB-231 [15], 31.4%; in the assay with MCF7 [16], 15.9%; with MDA-MB-231 [17] it was 32.3%. Moreover, the inhibition result in assay [7] was “Active”. Also, the inhibition at 30 µM in the assay on SK-BR-3 [8] (SK-BR-3, 72 h) is 50%. The Activity in the assay with SK-BR-3 [10] is recorded as 9.5%; in the assay on SK-BR-3 [11] it was 0.7%.

The record behind these values is ChEMBL document CHEMBL3580638, “Targeting HER-2 over expressed breast cancer cells with 2-cyclohexyl-N-[(Z)-(substituted phenyl/furan-2-yl/thiophene-2-yl)methylidene]hydrazinecarbothioamide” (Bioorg Med Chem Lett, 2014).
